Measurements taken from US5919803A, “3-benzylamino-2-phenylpiperidines as neurokinin antagonists” (Glaxo Group Limited, priority 1995, dated 1999).

Test system: radiation-induced emesis in the ferret
Assay: radiation-induced emesis in the ferret
Type: in vivo
Settings: 0.1 mg/kg s.c., compound administered 1.5 hours prior to irradiation (whole body, 2 Grey)
Description: In this model of emesis the onset of retching and vomiting occurs approximately 20 minutes after whole body irradiation (2 Grey=200 Rads). The test compound is administered (e.g. i.p, p.o., i.v., s.c) immediately after irradiation and its effect on emesis determined by comparison with appropriate controls. […] Alternatively, the test compounds may be administered before irradiation or before treatment with an emetogen, for example 1.5, 3 or 6 hours before irradiation.

CCOc1ccc(-n2nnnc2C(F)(F)F)cc1CN[C@H]1CCCN[C@H]1c1ccccc1.Cl.Cl [Example 1, [2-Ethoxy-5(5-trifluoromethyl-tetrazol-1-yl)-benzyl]-([2S,3S]-2-phenylpiperidine-3-yl)amine dihydrochloride]
inhibition of radiation-induced emesis: inhibited radiation-induced emesis
